One block for each compound: values may come before it.
Legend:
[1] = target: T1, human eEF-Sec (Uniprot ID P57772) (Homo sapiens, UniProt P57772); test: Purine probe labeling of recombinant eEF-Sec expressed in HEK293T cells, gel-based; assay type: cell-based; settings: 50 μM probe, live cells, 0.5 to 2 hours
T1 construct: FLAG; expressed in transfected cells; host or cells: HEK293T
T1 sequence (P57772 1-596): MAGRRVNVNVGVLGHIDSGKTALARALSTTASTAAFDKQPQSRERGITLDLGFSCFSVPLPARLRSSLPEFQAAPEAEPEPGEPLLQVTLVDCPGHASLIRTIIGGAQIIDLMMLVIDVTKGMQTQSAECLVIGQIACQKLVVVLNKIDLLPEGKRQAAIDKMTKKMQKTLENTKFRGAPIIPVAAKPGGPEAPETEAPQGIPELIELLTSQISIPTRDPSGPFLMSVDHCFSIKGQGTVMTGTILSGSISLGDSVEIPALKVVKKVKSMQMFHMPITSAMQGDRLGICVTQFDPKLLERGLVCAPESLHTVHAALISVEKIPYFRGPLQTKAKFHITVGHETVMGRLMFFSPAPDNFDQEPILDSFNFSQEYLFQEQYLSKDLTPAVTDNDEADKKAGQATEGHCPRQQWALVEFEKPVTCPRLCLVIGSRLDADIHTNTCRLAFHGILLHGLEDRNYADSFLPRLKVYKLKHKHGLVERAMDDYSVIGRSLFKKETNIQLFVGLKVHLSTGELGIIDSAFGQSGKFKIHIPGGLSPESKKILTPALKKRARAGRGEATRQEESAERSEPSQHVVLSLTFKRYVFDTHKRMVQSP
Procedure: Methods: HEK293T cells were grown at 37° C. in 5% CO2 until 40% confluent. Recombinant human eEF-Sec (Uniprot ID P57772) was expressed by transient transfection for 48 hours. […] Lysates were spun at 100,000×g for 45 minutes. […] Purine probe modified proteins were conjugated to rhodamine-azide by CuAAC, subjected to SDS-PAGE analysis, and detected by in-gel fluorescence scanning. Comparison of non-transfected (Mock) and transfected proteomes was used to identify the recombinant eEF-Sec purine probe-labeled band. […] Reduction in fluorescent signals from purine probe labeling was indicative of Pi ligand inhibitory activity. Mut represents eEF-Sec mutant where cysteine residue 442 is mutated to alanine (C442A).
SDS-PAGE gels were transferred to nitrocellulose membrane. Nitrocellulose blots were blocked with 5% BSA. Blots were washed five times with TBS-T. Recombinant protein expression was detected using an anti-FLAG primary antibody (1:1,000) followed by fluorescent secondary antibody (1:10,000) to determine if there was equivalent protein expression across different treatment conditions.

[2] = system: proteomes of DM93, Hela, A549, HEK293T, and Jurkat cells; test: Quantitative chemical proteomics (LC-MS) of Pu-1 and Pu-2 modified proteins; assay type: cell-based, HUMAN
Procedure: Cells were grown at 37° C. in 5% CO2 until 90% confluent. Once confluent cells were washed with serum free media and treated with purine probes (Pu-1, Pu-2) at a final concentration of 25 μM for 4 hours. Cells were then scraped and washed 3× with cold PBS and lysed in PBS+protease inhibitor. Lysates were spun at 100,000×g for 45 minutes. Purine probe-modified proteins in soluble fractions were coupled to desthiobiotin-azide using copper-catalyzed azide-alkyne cycloaddition (CuAAC; 1 hour, room temperature), probe-modified proteins digested into peptides using trypsin protease, probe-modified peptides enriched by avidin affinity chromatography, and subjected to LC-MS quantitative chemical proteomics as previously described.^15 The following cell lines were used for analysis: DM93, Hela, A549, HEK293T, and Jurkat. […]
Chemical proteomics performed as described in Example 9 determined several protein modification sites targeted by Pu-1 and/or Pu-2. […]

- labeling of recombinant eEF-SEC [1]: labeled in a time dependent manner
SMILES: C#CCn1cnc2nc(Cl)nc(Cl)c21 [Pu-1, 2,6-Dichloro-7-(prop-2-yn-1-yl)-7H-purine]
- Number of Unique Modified Residues ([2]; Arginine (R)): 2
- Percentage of Modified Residues ([2]; Arginine (R)): 0.84%
- Number of Unique Modified Residues ([2]; Asparagine (N)): 0
- Percentage of Modified Residues ([2]; Asparagine (N)): 0%
- Number of Unique Modified Residues ([2]; Aspartic Acid (D)): 9
- Percentage of Modified Residues ([2]; Aspartic Acid (D)): 3.8%
- Number of Unique Modified Residues ([2]; Cysteine (C), Byonic score>300): 196
- Percentage of Modified Residues ([2]; Cysteine (C), Byonic score>300): 82%
- Number of Unique Modified Residues ([2]; Glutamic Acid (E)): 12
- Percentage of Modified Residues ([2]; Glutamic Acid (E)): 5.0%
- Number of Unique Modified Residues ([2]; Glutamine (Q)): 3
- Percentage of Modified Residues ([2]; Glutamine (Q)): 1.3%
- Number of Unique Modified Residues ([2]; Histidine (H)): 1
- Percentage of Modified Residues ([2]; Histidine (H)): 0.42%
- Number of Unique Modified Residues ([2]; Lysine (K)): 4
- Percentage of Modified Residues ([2]; Lysine (K)): 1.7%
- Number of Unique Modified Residues ([2]; Methionine (M)): 2
- Percentage of Modified Residues ([2]; Methionine (M)): 0.84%
- Number of Unique Modified Residues ([2]; Serine (S)): 1
- Percentage of Modified Residues ([2]; Serine (S)): 0.42%
- Number of Unique Modified Residues ([2]; Threonine (T)): 2
- Percentage of Modified Residues ([2]; Threonine (T)): 0.84%
- Number of Unique Modified Residues ([2]; Tryptophan (W)): 1
- Percentage of Modified Residues ([2]; Tryptophan (W)): 0.42%
- Number of Unique Modified Residues ([2]; Tyrosine (Y)): 6
- Percentage of Modified Residues ([2]; Tyrosine (Y)): 2.5%

- labeling of recombinant eEF-SEC [1]: labeled in a time dependent manner
SMILES: C#CCn1cnc2c(Cl)nc(Cl)nc21 [Pu-2, 2,6-Dichloro-9-(prop-2-yn-1-yl)-9H-purine]
- Number of Unique Modified Residues ([2]; Arginine (R)): 19
- Percentage of Modified Residues ([2]; Arginine (R)): 1.6%
- Number of Unique Modified Residues ([2]; Asparagine (N)): 0
- Percentage of Modified Residues ([2]; Asparagine (N)): 0%
- Number of Unique Modified Residues ([2]; Aspartic Acid (D)): 44
- Percentage of Modified Residues ([2]; Aspartic Acid (D)): 3.7%
- Number of Unique Modified Residues ([2]; Cysteine (C), Byonic score>300): 952
- Percentage of Modified Residues ([2]; Cysteine (C), Byonic score>300): 80%
- Number of Unique Modified Residues ([2]; Glutamic Acid (E)): 68
- Percentage of Modified Residues ([2]; Glutamic Acid (E)): 5.7%
- Number of Unique Modified Residues ([2]; Glutamine (Q)): 39
- Percentage of Modified Residues ([2]; Glutamine (Q)): 3.3%
- Number of Unique Modified Residues ([2]; Histidine (H)): 12
- Percentage of Modified Residues ([2]; Histidine (H)): 1.0%
- Number of Unique Modified Residues ([2]; Lysine (K)): 24
- Percentage of Modified Residues ([2]; Lysine (K)): 2.0%
- Number of Unique Modified Residues ([2]; Methionine (M)): 7
- Percentage of Modified Residues ([2]; Methionine (M)): 0.59%
- Number of Unique Modified Residues ([2]; Serine (S)): 5
- Percentage of Modified Residues ([2]; Serine (S)): 0.42%
- Number of Unique Modified Residues ([2]; Threonine (T)): 6
- Percentage of Modified Residues ([2]; Threonine (T)): 0.50%
- Number of Unique Modified Residues ([2]; Tryptophan (W)): 3
- Percentage of Modified Residues ([2]; Tryptophan (W)): 0.25%
- Number of Unique Modified Residues ([2]; Tyrosine (Y)): 17
- Percentage of Modified Residues ([2]; Tyrosine (Y)): 21.4%
